# Data: PubChem BioAssay AID264 (DTP/NCI, 2004)
# Where “and” joins values, the source holds several entries; their conditions need not be identical. Equal values may be shown once. Results filed as inconclusive are left out.
# Test system: nude mice, LX-1 lung xenograft intrarenal, tumor weight T/C
# Assay: NCI In Vivo Anticancer Drug Screen. Data for tumor model Human Lung LX-1 Xenograft (intrarenal inoculation) in NU/NU Swiss (nude) mice
# Settings: endpoint: mean tumor weight change, higher = larger tumour
# Procedure, shortened: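 Readout: T/C, i.e. treated-group tumor measurement over vehicle-control measurement. Mice bearing transplantable tumors were dosed with compound or vehicle.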
# [1] = dose: 50.0 mg/kg/injection, schedule: Q04DX003 (sc), vehicle: saline with Tween-80
# [2] = dose: 100.0 mg/kg/injection, schedule: Q04DX003 (sc), vehicle: saline with Tween-80
# [3] = dose: 200.0 mg/kg/injection, schedule: Q04DX003 (sc), vehicle: saline with Tween-80
# [4] = dose: 400.0 mg/kg/injection, schedule: Q04DX003 (sc), vehicle: saline with Tween-80
# [5] = dose: 75.0 mg/kg/injection, schedule: Q04DX003 (sc), vehicle: saline with Tween-80
# [6] = dose: 150.0 mg/kg/injection, schedule: Q04DX003 (sc), vehicle: saline with Tween-80
# [7] = dose: 300.0 mg/kg/injection, schedule: Q04DX003 (sc), vehicle: saline with Tween-80
# [8] = dose: 600.0 mg/kg/injection, schedule: Q04DX003 (sc), vehicle: saline with Tween-80
# [9] = dose: 2.0 mg/kg/injection, schedule: Q04DX003 (sc), vehicle: saline with Tween-80
# [10] = dose: 50.0 mg/kg/injection, schedule: Q04DX003 (sc), vehicle: saline
# [11] = dose: 100.0 mg/kg/injection, schedule: Q04DX003 (sc), vehicle: suspension in saline
compound,measurement,setting,value
NC(=S)N/N=C/c1ccc(O)cn1,T/C,[1],102 % of control
same,T/C,[2],94 % of control
same,T/C,[3],96 % of control
same,T/C,[4],64 % of control
Cc1cc(NCCCCCCNc2cc(C)nc3cc(N(C)C)ccc23)c2ccc(N(C)C)cc2n1,T/C,"dose: 75.0 mg/kg/injection, schedule: Q04DX003 (sc), vehicle: distilled water + Tween-80 + alcohol",46 % of control
same,T/C,"dose: 150.0 mg/kg/injection, schedule: Q04DX003 (sc), vehicle: distilled water + Tween-80 + alcohol",44 % of control
COc1cc2c3c(cccc3c1)C(=O)N(CCN(C)C)C2=O,T/C,[5],98 % of control
same,T/C,[6],115 % of control
same,T/C,[7],53 % of control
same,T/C,[8],79 % of control
COC1=C(OC)C(=O)C(Sc2ccc3ccccc3c2)=CC1=O,T/C,[5],85 % of control
same,T/C,[6],93 % of control
same,T/C,[3],115 % of control
same,T/C,[7],80 % of control
same,T/C,[4],104 % of control
same,T/C,"dose: 800.0 mg/kg/injection, schedule: Q04DX003 (sc), vehicle: saline with Tween-80",92 % of control
same,T/C,"dose: 1600.0 mg/kg/injection, schedule: Q04DX003 (sc), vehicle: saline with Tween-80",79 % of control
CCOC(=O)C1(c2ccccc2)C(=O)Oc2ccccc21 (stereo not drawn),T/C,[7],54 % of control
same,T/C,[8],103 % of control
same,T/C,"dose: 1200.0 mg/kg/injection, schedule: Q04DX003 (sc), vehicle: saline with Tween-80",73 % of control
same,T/C,"dose: 2400.0 mg/kg/injection, schedule: Q04DX003 (sc), vehicle: saline with Tween-80",74 % of control
Oc1ccc(CCl)c2cccnc12,T/C,"dose: 75.0 mg/kg/injection, schedule: Q04DX003 (sc), vehicle: saline",91 % of control
same,T/C,"dose: 150.0 mg/kg/injection, schedule: Q04DX003 (sc), vehicle: saline",78 % of control
same,T/C,"dose: 300.0 mg/kg/injection, schedule: Q04DX003 (sc), vehicle: saline",46 % of control
CSc1ccc2c(c1)C(N1CCN(C)CC1)Cc1ccccc1S2 (stereo not drawn),T/C,"dose: 25.0 mg/kg/injection, schedule: Q04DX003 (sc), vehicle: saline with Tween-80",152 % of control
same,T/C,[1],88 % of control
same,T/C,[2],171 % of control
CN(Cc1cnc2nc(N)nc(N)c2n1)c1ccc(C(=O)N[C@@H](CCC(=O)O)C(=O)O)cc1,T/C,"dose: 0.5 mg/kg/injection, schedule: Q01DX010 (sc), vehicle: sodium bicarbonate",74 % of control
same,T/C,"dose: 1.0 mg/kg/injection, schedule: Q01DX010 (sc), vehicle: sodium bicarbonate",87 % of control
same,T/C,"dose: 2.0 mg/kg/injection, schedule: Q01DX010 (sc), vehicle: sodium bicarbonate",18 % of control
COC(C(=O)C(O)C(C)O)C1Cc2cc3cc(OC4CC(OC(C)=O)C(OC5CC(O)C(OC)C(C)O5)C(C)O4)cc(O)c3c(O)c2C(=O)C1OC1CC(OC2CC(OC3CC(C)(O)C(OC(=O)C(C)C)C(C)O3)C(O)C(C)O2)C(O)C(C)O1 (stereo not drawn),T/C,"dose: 1.0 mg/kg/injection, schedule: Q04DX003 (sc), vehicle: saline with Tween-80",77 % of control
same,T/C,[9],58 % of control
same,T/C,"dose: 4.0 mg/kg/injection, schedule: Q01DX010 (sc), vehicle: saline with Tween-80",12 % of control and 30 % of control
same,T/C,"dose: 4.0 mg/kg/injection, schedule: Q04DX003 (sc), vehicle: saline with Tween-80",50 % of control
COC1/C=C/C=C(/C)Cc2cc(O)c(Cl)c(c2)N(C)C(=O)CC(OC(=O)C(C)C)C2(C)OC2C(C)C2CC1(O)NC(=O)O2 (stereo not drawn),T/C,"dose: 1.0 mg/kg/injection, schedule: Q04DX003 (sc), vehicle: saline + alcohol",81 % of control
same,T/C,"dose: 2.0 mg/kg/injection, schedule: Q04DX003 (sc), vehicle: saline + alcohol",67 % of control
same,T/C,"dose: 4.0 mg/kg/injection, schedule: Q04DX003 (sc), vehicle: saline + alcohol",58 % of control
O=C1c2ccccc2C(=O)c2c(NCCNCCO)ccc(O)c21,T/C,"dose: 12.5 mg/kg/injection, schedule: Q04DX003 (sc), vehicle: suspension in saline",94 % of control
same,T/C,"dose: 25.0 mg/kg/injection, schedule: Q04DX003 (sc), vehicle: saline",90 % of control
same,T/C,"dose: 25.0 mg/kg/injection, schedule: Q04DX003 (sc), vehicle: suspension in saline",108 % of control
same,T/C,[10],74 % of control
same,T/C,"dose: 50.0 mg/kg/injection, schedule: Q04DX003 (sc), vehicle: suspension in saline",90 % of control
same,T/C,"dose: 100.0 mg/kg/injection, schedule: Q04DX003 (sc), vehicle: saline",61 % of control
same,T/C,[11],92 % of control
same,T/C,"dose: 200.0 mg/kg/injection, schedule: Q04DX003 (sc), vehicle: saline",93 % of control
CC1(C)CC(=O)C(CSC(=O)c2ccccc2)C(=O)C1,T/C,"dose: 150.0 mg/kg/injection, schedule: Q04DX003 (sc), vehicle: Klucel (hydroxypropylcellulose) (HPC)",102 % of control
same,T/C,"dose: 300.0 mg/kg/injection, schedule: Q04DX003 (sc), vehicle: Klucel (hydroxypropylcellulose) (HPC)",119 % of control
C[Si](C)(C)n1nnn(-c2ccccc2)c1=O,T/C,[5],94 % of control
same,T/C,[6],105 % of control
same,T/C,[7],107 % of control
O=c1[nH]c2c(ccc3cnccc32)c2c1CCC2,T/C,[11],87 % of control
same,T/C,"dose: 200.0 mg/kg/injection, schedule: Q04DX003 (sc), vehicle: suspension in saline",87 % of control
same,T/C,"dose: 400.0 mg/kg/injection, schedule: Q04DX003 (sc), vehicle: suspension in saline",57 % of control
same,T/C,"dose: 800.0 mg/kg/injection, schedule: Q04DX003 (sc), vehicle: suspension in saline",109 % of control
CO[C@H](C(=O)[C@@H](O)[C@@H](C)O)[C@@H]1Cc2cc3cc(OC4CC(OC5CC(O)C(O)C(C)O5)C(O)C(C)O4)c(C)c(O)c3c(O)c2C(=O)[C@H]1OC1CC(OC2CC(OC3CC(C)(O)C(O)C(C)O3)C(O)C(C)O2)C(O)C(C)O1 (stereo partly drawn),T/C,"dose: 0.25 mg/kg/injection, schedule: Q01DX010 (sc), vehicle: saline",120 % of control
same,T/C,"dose: 0.25 mg/kg/injection, schedule: Q04DX003 (sc), vehicle: saline",76 % of control
same,T/C,"dose: 0.5 mg/kg/injection, schedule: Q04DX003 (sc), vehicle: saline",87 % of control
same,T/C,"dose: 0.75 mg/kg/injection, schedule: Q04DX003 (sc), vehicle: saline",101 % of control
same,T/C,"dose: 1.0 mg/kg/injection, schedule: Q04DX003 (sc), vehicle: saline",96 % of control
same,T/C,"dose: 1.5 mg/kg/injection, schedule: Q04DX003 (sc), vehicle: saline",78 % of control
same,T/C,"dose: 2.0 mg/kg/injection, schedule: Q01DX010 (sc), vehicle: saline",-51 % of control
same,T/C,"dose: 2.0 mg/kg/injection, schedule: Q04DX003 (sc), vehicle: saline",20 % of control
same,T/C,"dose: 3.0 mg/kg/injection, schedule: Q04DX003 (sc), vehicle: saline",40 % of control
NCCCC(N)(C(=O)O)C(F)F (stereo not drawn),T/C,"dose: 300.0 mg/kg/injection, schedule: Q04DX003 (sc), vehicle: distilled water + alcohol",101 % of control
same,T/C,"dose: 600.0 mg/kg/injection, schedule: Q04DX003 (sc), vehicle: distilled water + alcohol",87 % of control
same,T/C,"dose: 1200.0 mg/kg/injection, schedule: Q04DX003 (sc), vehicle: distilled water + alcohol",82 % of control
same,T/C,"dose: 2400.0 mg/kg/injection, schedule: Q04DX003 (sc), vehicle: distilled water + alcohol",92 % of control
Clc1cc(Cl)c(C[N+]23CN4CN(CN(C4)C2)C3)cc1Cl,T/C,"dose: 18.75 mg/kg/injection, schedule: Q04DX003 (sc), vehicle: saline with Tween-80",76 % of control
same,T/C,"dose: 37.5 mg/kg/injection, schedule: Q04DX003 (sc), vehicle: saline with Tween-80",96 % of control
same,T/C,[5],91 % of control
same,T/C,[6],107 % of control
COc1ccc2c(NCCCCCCNc3c4ccccc4nc4cc(OC)ccc34)c3ccccc3nc2c1,T/C,"dose: 1.25 mg/kg/injection, schedule: Q01DX010 (sc), vehicle: lactic acid",105 % of control
same,T/C,"dose: 2.5 mg/kg/injection, schedule: Q01DX010 (sc), vehicle: lactic acid",100 % of control
same,T/C,"dose: 10.0 mg/kg/injection, schedule: Q01DX010 (sc), vehicle: lactic acid",48 % of control
CC1=C[S+](c2ccccc2)c2cccc3cc4ccccc4c1c23 (stereo not drawn),T/C,[9],102 % of control
CCOC(=O)C(N)CSC(=O)NC (stereo not drawn),T/C,[10],165 % of control
same,T/C,"dose: 400.0 mg/kg/injection, schedule: Q04DX003 (sc), vehicle: saline",94 % of control
Cc1cc(N(CC(C)Br)CC(C)Br)ccc1N=Nc1ccccc1C(=O)O (stereo not drawn),T/C,"dose: 3.13 mg/kg/injection, schedule: Q01DX010 (sc), vehicle: saline with Tween-80",85 % of control
same,T/C,"dose: 6.25 mg/kg/injection, schedule: Q01DX010 (sc), vehicle: saline with Tween-80",151 % of control
Cn1c2nc(=O)n(-c3ccccc3)c(=O)c-2nc2c1CCCC2,T/C,[5],71 % of control
same,T/C,[6],101 % of control
O=C(O)CC(=O)O.[NH-]C1CCCCC1[NH-].[Pt+2] (stereo not drawn),T/C,"dose: 5.0 mg/kg/injection, schedule: Q01DX010 (sc), vehicle: dextrose",187 % of control and 247 % of control
same,T/C,"dose: 10.0 mg/kg/injection, schedule: Q01DX010 (sc), vehicle: dextrose",92 % of control
